Measurements reported in PMC7998250, “Temperate Zone Plant Natural Products—A Novel Resource for Activity against Tropical Parasitic Diseases” (Pharmaceuticals, 2021).

What was measured:
T. brucei = assay: Concentration-response EC50, T. brucei; format: cell-based, Trypanosoma brucei brucei; details: read-out: T. brucei EC50; bloodstream form, 48 h
Text: (§2) Initial hits from the parasite panel screen were taken forward in log concentration versus normalised response assays to estimate the half maximal effective concentration (EC50) in hit species as well as the half maximal cytotoxic concentrations (CC50) in the human hepatoma cell line HepG2 as a preliminary test for selectivity. Using CC50/EC50 to define the selectivity index (SI), the selectivity for each compound in a defined species compared to a human cell line was estimated and compared to the EC50 (Figure 3).
(§3) EC50 values were determined by serial two-fold dilution of each compound in 96 well plates. Culture conditions and viability assays were as stated for the initial screen, with some exceptions. L. mexicana and L. donovani axenic amastigotes were seeded at 2 × 10^6 cell/s mL, T. brucei and T. evansi were seeded at 2 × 10^5 cells/mL. For cytotoxicity studies, HepG2 cells were seeded at 1 × 10^5 cells/mL, incubated for 48 h and viability was assessed using the Alamar Blue assay [66, 67]. […] Normalised growth and viability data (compared to untreated controls) were plotted against Log10 concentration to estimate EC50 in GraphPad (Prism v6).

HepG2 cells [1] = assay: Cytotoxicity CC50, HepG2, Alamar Blue; details: read-out: HepG2 CC50; 48 h
Outline: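 Human hepatoma cells seeded at 1 × 10^5 cells/mL with two-fold serial compound dilutions, incubated 48 h at 37 °C, 5% CO2 in DMEM/10% FBS. Viability read by Alamar Blue. CC50 estimated from viability normalised to untreated controls versus log concentration.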

[2] = system: L. mexicana axenic amastigotes; assay: Initial screen, L. mexicana axenic amastigotes, Alamar Blue; format: cell-based, Leishmania mexicana
Outline: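 Purified temperate plant natural products from a commercial library (1 mg/mL in DMSO) were tested against Leishmania mexicana axenic amastigotes at a final 2 μM. Parasites were seeded at 1 × 10^6 cells/mL in 96-well plates containing 200 μL culture and incubated 72 h. Growth was measured by Alamar Blue and normalised to DMSO controls (1% v/v), with triplicates over two biological replicates (n = 6).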

[3] = system: L. mexicana axenic amastigotes; assay: Concentration-response EC50, L. mexicana axenic amastigotes (WT); format: cell-based, Leishmania mexicana; details: read-out: L. mexicana EC50; axenic amastigotes, 72 h
Text: as §2, §3

[4] = system: T. evansi bloodstream form; assay: Initial screen, T. evansi bloodstream form, Alamar Blue; format: cell-based, Trypanosoma evansi; details: initial screen; compared to a normalised control with same concentration of DMSO solvent
Outline: (§1)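 Bloodstream-form T. evansi Antat 3/3 and T. brucei Lister 427 were grown in HMI-11 with 10% FBS at 37 °C. Parasites were plated at 1×10^5 cells/mL with compound at 1 μM (T. evansi) or 2 μM (T. brucei) for 48 h, and growth was read by Alamar Blue relative to 1% DMSO controls (n = 6).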

[5] = system: activated monocyte cell line (THP-1); assay: Cytotoxicity CC50, differentiated THP-1, Alamar Blue; format: cell-based, human; details: differentiated THP-1, 48 h; read-out: THP1 CC50
Text: The four lanosterone-like sterols derived from the Noble Fir Abies procera (700022, 700107, 700136) and the Grand Fir Abies grandis (700240) were the only initial compounds taken forward for L. mexicana due to their nanomolar activity and apparent low cytotoxicity (Figure 3a). […] Understanding the impact of the ring-opened lactone head group in this compound compared to the other three warrants further analysis in exploring their structure-activity relationships. These four sterols were also tested for growth inhibitory activity against L. donovani axenic amastigotes. […] As Leishmania spp. amastigotes typically reside with macrophages, further cytotoxicity assays with these sterols were performed against an activated monocyte cell line (THP-1) (Figure 4b). […]

[6] = system: T. brucei bloodstream form; assay: Initial screen, T. brucei bloodstream form, Alamar Blue; format: cell-based, Trypanosoma brucei brucei
Outline: as §1

[7] = system: P. falciparum Dd2Luc intraerythrocytic trophozoites; assay: Initial screen, intraerythrocytic P. falciparum, Malaria SYBR-Green I fluorescence assay; format: cell-based, Plasmodium falciparum; details: Plasmodium falciparum, 48 h, read-out: mean % growth, P. falciparum, initial screen; compared to a normalised control with same concentration of DMSO solvent
Outline: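 L. mexicana axenic amastigotes at 1 × 10^6 cells/mL exposed 72 h to compounds at 2 μM, growth read by Alamar Blue; P. falciparum trophozoites at 0.5% parasitaemia, 2% haematocrit, 48 h at 2 μM, SYBR-Green I read-out. Growth normalised to 1% DMSO; hits ≥50% growth reduction.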

HepG2 cells [8] = system: HepG2 cells; set-up: method as in PMID 31617221; details: cited from earlier work
P. falciparum Dd2Luc = system: P. falciparum Dd2Luc; set-up: method as in PMID 27999014; details: control compounds; cited from earlier work
T. b. rhodesiense = system: T. b. rhodesiense; set-up: method as in PMID 29896963; details: cited from earlier work
[9] = system: P. falciparum NF54 strain; set-up: method as in PMID 29896963; details: drug sensitive NF54 strain; cited from earlier work
[10] = initial screen, compared to a normalised control with same concentration of DMSO solvent

For `C=C1C(=O)OC2CC(C)C3C=CC(=O)C3(C)C(OC(C)=O)C12` (centres unmarked) [Compound 701154], the EC50 (T. brucei) was 1600 nM, the CC50 (HepG2 cells [1]) was 4200 nM and the “initial hit against L. mexicana” value ([2]; 2 μM, growth inhibited by ≥80%) was “initial hits”. The inhibition of growth at 2 µM ([2]; Leishmania mexicana, read-out: initial hit L.m) was over 80%, the “mean % growth, L. mexicana” value [2, 10] was -0.64% and the EC50 [3] was 950 nM. The “mean % growth, T. evansi” value [4] was 79.8%, the CC50 [5] was 1500 nM and the “initial hit against T. brucei” value ([6]; 2 μM, growth reduced by ≥50%) was “initial hits”. The inhibition of growth at 2 µM ([6]; Trypanosoma brucei, read-out: initial hit T.b) was over 50%, the “mean % growth, T. b. brucei” value [6, 10] was 14.7% and the activity at 2 µM [7] was 66.5%.
For `COc1cc(C[C@H]2C(=O)OC[C@@H]2Cc2ccc(OC)c(OC)c2)ccc1O` [arctigenin], the “antiproliferative activity against HepG2 cells” value (HepG2 cells [8]) is listed as “potent antiproliferative activity”.
For `O=C1C(O)=C([C@H]2CC[C@H](c3ccc(Cl)cc3)CC2)C(=O)c2ccccc21` [atovaquone], the “rate of kill of control antimalarials” value (P. falciparum Dd2Luc) is listed as “slow killing compound with 48 h lag in action”.
In the case of `C[C@H]1[C@@H](O)O[C@@H]2O[C@@]3(C)CC[C@H]4[C@H](C)CC[C@@H]1[C@@]24OO3` [dihydroartemisinin], the “rate of kill of control antimalarials” value (P. falciparum Dd2Luc) is listed as “rapid initial rate of kill with no lag in action”.
For `CC(C)c1cc(CC[C@@H]2C(=O)CCCC2(C)C)c(O)cc1O` [leriifoliol], the “activity against T. b. rhodesiense” value (T. b. rhodesiense) is listed as “micromolar activity” and the “activity against P. falciparum” value [9] is listed as “submicromolar activity”.
